The results in this text go back to PMC6812009, “Covalent Aurora A regulation by the metabolic integrator coenzyme A” (Redox Biology, 2019).

What all share (experiment): Kinase profiling screen (radioactive filter-binding assay)
Assay type in all cases: biochemical

Assay [1] deals with STK33 (Homo sapiens, UniProt Q9BYT3). Particulars: 100 μM compound, 50 μM ATP; read-out: Kinase activity, % of activity in the absence of inhibitor. An outline of the steps:
(§1)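 Panel of 117 recombinant kinases; CoA, dpCoA, ADP each at 100 μM final, duplicates; model substrates, ATP at optimal level.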

For assay [2], the target named is CK1δ (Homo sapiens, UniProt P48730). Particulars: 100 μM compound, 20 μM ATP; read-out: Kinase activity, % of activity in the absence of inhibitor. An outline of the steps: as §1
Sequence of CK1δ (P48730 whole entry): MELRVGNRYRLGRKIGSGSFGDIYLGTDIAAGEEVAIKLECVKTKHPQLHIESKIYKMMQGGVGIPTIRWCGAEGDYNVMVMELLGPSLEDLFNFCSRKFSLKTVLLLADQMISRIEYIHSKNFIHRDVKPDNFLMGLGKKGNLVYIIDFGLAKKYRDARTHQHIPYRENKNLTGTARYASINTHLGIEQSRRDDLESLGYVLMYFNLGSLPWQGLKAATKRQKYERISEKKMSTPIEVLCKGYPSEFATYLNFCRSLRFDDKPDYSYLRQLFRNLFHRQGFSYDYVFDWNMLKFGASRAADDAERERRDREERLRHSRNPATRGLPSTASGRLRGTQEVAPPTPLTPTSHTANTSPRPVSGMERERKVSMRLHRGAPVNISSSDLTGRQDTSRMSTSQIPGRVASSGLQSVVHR
Assay [3] concerns the target PAK6 (Homo sapiens, UniProt Q9NQU5). Particulars: 100 μM compound, 20 μM ATP; read-out: Kinase activity, % of activity in the absence of inhibitor. An outline of the steps:
as §1

Assay [4] addresses MELK (Homo sapiens, UniProt Q14680). Particulars: 100 μM compound, 50 μM ATP; read-out: Kinase activity, % of activity in the absence of inhibitor. The procedure, abridged:
as §1

The target in assay [5] is T1, ASK1 (Homo sapiens, UniProt Q99683).
T1 sequence (Q99683 1-1374): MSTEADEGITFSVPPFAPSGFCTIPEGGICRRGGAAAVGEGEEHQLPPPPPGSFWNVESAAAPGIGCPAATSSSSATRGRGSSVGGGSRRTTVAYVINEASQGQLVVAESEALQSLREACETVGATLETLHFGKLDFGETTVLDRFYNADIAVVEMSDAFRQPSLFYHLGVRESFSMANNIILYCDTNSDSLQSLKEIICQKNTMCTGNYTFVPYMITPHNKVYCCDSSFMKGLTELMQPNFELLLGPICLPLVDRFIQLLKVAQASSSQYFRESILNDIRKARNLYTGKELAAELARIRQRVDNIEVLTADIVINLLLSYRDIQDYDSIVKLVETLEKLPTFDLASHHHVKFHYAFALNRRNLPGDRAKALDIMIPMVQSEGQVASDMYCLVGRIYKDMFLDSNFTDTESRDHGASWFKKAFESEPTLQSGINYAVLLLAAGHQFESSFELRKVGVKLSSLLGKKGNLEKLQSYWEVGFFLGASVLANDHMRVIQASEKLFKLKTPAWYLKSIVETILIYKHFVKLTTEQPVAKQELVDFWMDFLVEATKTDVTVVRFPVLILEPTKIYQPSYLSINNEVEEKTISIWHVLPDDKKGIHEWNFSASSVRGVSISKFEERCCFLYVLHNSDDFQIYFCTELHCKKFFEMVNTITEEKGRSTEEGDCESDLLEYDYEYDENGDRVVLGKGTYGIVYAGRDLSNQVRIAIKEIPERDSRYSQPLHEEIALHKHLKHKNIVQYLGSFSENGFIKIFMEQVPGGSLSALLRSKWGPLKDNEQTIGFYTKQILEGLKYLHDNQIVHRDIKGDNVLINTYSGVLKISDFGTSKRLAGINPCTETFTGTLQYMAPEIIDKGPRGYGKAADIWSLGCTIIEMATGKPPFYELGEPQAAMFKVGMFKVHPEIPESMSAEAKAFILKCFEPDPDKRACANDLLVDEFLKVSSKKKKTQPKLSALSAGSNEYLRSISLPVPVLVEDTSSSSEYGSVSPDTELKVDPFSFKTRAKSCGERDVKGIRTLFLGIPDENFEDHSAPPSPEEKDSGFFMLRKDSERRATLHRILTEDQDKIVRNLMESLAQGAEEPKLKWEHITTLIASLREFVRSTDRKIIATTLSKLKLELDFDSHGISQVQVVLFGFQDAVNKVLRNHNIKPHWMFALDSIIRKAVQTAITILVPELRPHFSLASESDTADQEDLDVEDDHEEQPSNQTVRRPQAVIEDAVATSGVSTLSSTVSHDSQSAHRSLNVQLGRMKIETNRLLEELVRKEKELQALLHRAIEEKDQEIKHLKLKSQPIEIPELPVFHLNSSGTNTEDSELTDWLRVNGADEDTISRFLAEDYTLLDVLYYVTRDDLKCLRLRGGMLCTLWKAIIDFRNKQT
Particulars: 100 μM compound, 50 μM ATP; read-out: Kinase activity, % of activity in the absence of inhibitor. An outline of the steps: as §1

In assay [6] the target is PKA (Homo sapiens, UniProt P17612). Particulars: for activity at 100 µM: 100 μM compound, 20 μM ATP, read-out: Kinase activity, % of activity in the absence of inhibitor. The procedure, abridged:
as §1

Assay [7] has as its target T2, MKK6 (Homo sapiens, UniProt P52564).
T2 sequence (P52564 1-334): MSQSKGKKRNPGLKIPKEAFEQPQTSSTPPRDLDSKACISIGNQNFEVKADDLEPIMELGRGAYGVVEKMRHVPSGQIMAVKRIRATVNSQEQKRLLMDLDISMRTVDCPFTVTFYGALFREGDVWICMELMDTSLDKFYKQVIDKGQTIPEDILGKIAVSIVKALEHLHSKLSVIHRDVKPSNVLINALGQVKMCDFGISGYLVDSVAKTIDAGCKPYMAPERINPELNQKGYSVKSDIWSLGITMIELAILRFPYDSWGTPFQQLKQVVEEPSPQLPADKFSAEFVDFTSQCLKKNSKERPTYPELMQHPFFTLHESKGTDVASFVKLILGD
Particulars: 100 μM compound, 50 μM ATP; read-out: Kinase activity, % of activity in the absence of inhibitor. The procedure, abridged:
as §1

For assay [8], the target named is RSK2 (Homo sapiens, UniProt P51812). Particulars: 100 μM compound, 50 μM ATP; read-out: Kinase activity, % of activity in the absence of inhibitor. The procedure, abridged: as §1
Sequence of RSK2 (P51812 whole entry): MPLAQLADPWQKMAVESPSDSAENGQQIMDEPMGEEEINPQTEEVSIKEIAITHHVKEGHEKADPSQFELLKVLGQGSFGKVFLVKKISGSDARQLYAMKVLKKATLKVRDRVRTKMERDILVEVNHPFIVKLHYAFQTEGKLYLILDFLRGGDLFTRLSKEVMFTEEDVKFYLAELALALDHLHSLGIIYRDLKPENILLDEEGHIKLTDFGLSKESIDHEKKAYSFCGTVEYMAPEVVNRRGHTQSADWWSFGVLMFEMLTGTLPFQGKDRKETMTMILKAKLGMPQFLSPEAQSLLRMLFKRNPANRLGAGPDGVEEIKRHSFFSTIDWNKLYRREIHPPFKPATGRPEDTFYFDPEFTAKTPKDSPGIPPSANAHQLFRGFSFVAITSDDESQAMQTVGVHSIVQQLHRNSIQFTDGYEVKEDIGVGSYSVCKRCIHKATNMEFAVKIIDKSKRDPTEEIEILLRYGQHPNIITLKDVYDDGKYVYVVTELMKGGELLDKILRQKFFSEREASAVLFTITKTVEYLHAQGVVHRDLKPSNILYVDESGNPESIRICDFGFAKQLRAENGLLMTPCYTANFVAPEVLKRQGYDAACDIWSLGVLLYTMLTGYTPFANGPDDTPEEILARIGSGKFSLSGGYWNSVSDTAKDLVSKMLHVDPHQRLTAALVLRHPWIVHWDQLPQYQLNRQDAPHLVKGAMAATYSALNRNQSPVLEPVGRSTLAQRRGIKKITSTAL

Sequence of STK33 (Q9BYT3 whole entry): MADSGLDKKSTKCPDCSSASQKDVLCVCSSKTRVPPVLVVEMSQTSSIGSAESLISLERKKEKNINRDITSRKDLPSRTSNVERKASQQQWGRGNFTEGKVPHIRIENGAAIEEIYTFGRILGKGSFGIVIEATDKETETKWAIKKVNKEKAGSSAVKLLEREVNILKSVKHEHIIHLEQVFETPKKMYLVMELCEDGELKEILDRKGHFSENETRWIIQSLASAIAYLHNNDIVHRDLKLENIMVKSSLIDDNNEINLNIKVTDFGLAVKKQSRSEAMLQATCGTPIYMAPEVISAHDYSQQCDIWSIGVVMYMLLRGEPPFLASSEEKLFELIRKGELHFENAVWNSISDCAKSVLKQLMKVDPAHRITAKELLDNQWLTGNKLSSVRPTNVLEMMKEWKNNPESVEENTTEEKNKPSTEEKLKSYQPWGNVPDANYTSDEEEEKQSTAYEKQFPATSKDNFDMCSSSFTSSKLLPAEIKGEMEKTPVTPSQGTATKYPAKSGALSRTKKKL
Sequence of PAK6 (Q9NQU5 whole entry): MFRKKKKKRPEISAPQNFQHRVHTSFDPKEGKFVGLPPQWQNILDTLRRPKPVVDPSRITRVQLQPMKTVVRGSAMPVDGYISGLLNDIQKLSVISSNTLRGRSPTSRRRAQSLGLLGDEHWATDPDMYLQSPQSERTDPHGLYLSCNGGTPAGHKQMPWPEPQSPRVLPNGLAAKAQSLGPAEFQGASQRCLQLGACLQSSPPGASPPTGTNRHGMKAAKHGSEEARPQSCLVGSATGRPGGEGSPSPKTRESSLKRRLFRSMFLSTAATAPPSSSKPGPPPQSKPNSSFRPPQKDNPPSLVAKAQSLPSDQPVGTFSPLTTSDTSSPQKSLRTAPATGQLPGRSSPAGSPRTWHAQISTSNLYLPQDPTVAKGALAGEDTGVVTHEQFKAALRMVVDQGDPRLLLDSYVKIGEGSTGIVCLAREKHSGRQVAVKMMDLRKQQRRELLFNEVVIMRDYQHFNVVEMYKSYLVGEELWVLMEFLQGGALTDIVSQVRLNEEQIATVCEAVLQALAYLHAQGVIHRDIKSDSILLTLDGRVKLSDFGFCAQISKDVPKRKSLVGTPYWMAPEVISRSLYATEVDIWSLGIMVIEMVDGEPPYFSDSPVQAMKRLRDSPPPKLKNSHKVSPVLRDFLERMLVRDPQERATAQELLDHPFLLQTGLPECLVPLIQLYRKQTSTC
Sequence of MELK (Q14680 whole entry): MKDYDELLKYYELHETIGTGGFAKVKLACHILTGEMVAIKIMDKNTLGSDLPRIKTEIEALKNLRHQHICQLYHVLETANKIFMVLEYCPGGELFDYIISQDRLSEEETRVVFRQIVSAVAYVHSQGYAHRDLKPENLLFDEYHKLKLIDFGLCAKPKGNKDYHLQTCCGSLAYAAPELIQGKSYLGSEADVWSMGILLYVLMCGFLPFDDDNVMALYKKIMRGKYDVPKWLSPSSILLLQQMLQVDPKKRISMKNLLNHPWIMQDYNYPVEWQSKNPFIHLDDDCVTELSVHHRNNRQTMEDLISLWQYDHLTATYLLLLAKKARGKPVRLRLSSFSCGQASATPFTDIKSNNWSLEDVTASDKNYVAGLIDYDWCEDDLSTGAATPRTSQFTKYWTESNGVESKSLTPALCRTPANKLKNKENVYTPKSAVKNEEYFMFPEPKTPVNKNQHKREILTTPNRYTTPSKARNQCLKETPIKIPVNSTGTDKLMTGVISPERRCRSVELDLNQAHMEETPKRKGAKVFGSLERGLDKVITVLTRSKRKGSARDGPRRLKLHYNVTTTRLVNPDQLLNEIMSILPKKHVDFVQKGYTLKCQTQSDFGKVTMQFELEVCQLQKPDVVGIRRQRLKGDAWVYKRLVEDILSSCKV

As to `Nc1ncnc2c1ncn2C1OC(COP(=O)(O)OP(=O)(O)O)C(O)C1O` (stereo not shown) [ADP], the activity at 100 µM amounted to 54.6% in assay [1]; 57.6% in assay [2]; 78.4% in assay [3]; 63.5% in assay [4]; 70.2% in assay [5]; 27.8% in assay [6]. The activity at 100 µM turned out to be 39.1% in assay [7] and 47.9% in assay [8].

`CC(C)(COP(=O)(O)OP(=O)(O)OC[C@H]1O[C@@H](n2cnc3c(N)ncnc32)[C@H](O)[C@@H]1OP(=O)(O)O)[C@@H](O)C(=O)NCCC(=O)NCCS` [CoA, Coenzyme A]: the activity at 100 µM in assay [1] came out at 71.8%; in assay [2], 80.8%; in assay [3], 98.4%; in assay [4], 76.3%; in assay [5] it was 129%; in assay [6], 98.9%. Moreover, the activity at 100 µM was 88.6% in assay [7] and 96.5% in assay [8]. Besides, the “PKA inhibition in vitro” value in assay [6] (kinase profiling, 100 μM) is on record as “not detected”.

Consider `CC(C)(COP(=O)(O)OP(=O)(O)OCC1OC(n2cnc3c(N)ncnc32)C(O)C1O)C(O)C(=O)NCCC(=O)NCCS` (stereo not shown) [dpCoA, dephospho-CoA], for which the activity at 100 µM in assay [1] was 83.3%; in assay [2], 80.4%; in assay [3], 101%; in assay [4], 104%; in assay [5], 88.6%; in assay [6], 81.3%. For the same compound, the results for the activity at 100 µM in assay [7] and in assay [8] were 88.2% and 62.9%, respectively.
